The text below walks through data of patent US8524716B2, “Macrocyclic indoles as hepatitis C virus inhibitors” (priority 2007, dated 2013).

SMILES strings stand for the structures. Read-outs that look alike come from different tables or passages of the source.

For data set [1] the following is noted: rcm bond, Hoveyda-Grubbs 1st generation catalyst, 80.0 °C.
In data set [2] the test system is HCV replicons (NS3-NS5B regions of HCV type 1b) in Huh-Luc cells. Description: HCV replicon assay in Huh-7 luc/neo (Huh-Luc) cells, luciferase readout. The data set is classed as cell-based. To be noted: Hepatitis C virus, Huh-7, 72 h, three days incubation, luciferase activity. The text has this:
The compounds of formula (I) were examined for activity in the inhibition of HCV RNA replication in a cellular assay. […] The cellular assay was based on a bicistronic expression construct, as described by Lohmann et al. (1999) Science vol. 285 pp. 110-113 with modifications described by Krieger et al. (2001) Journal of Virology 75: 4614-4624, in a multi-target screening strategy. In essence, the method was as follows.
The assay utilized the stably transfected cell line Huh-7 luc/neo (hereafter referred to as Huh-Luc). This cell line harbors an RNA encoding a bicistronic expression construct comprising the wild type NS3-NS5B regions of HCV type 1b translated from an Internal Ribosome Entry Site (IRES) from encephalomyocarditis virus (EMCV), preceded by a reporter portion (firefly luciferase), and a selectable marker portion (neo^R, neomycine phosphotransferase). The construct is bordered by 5′ and 3′ NTRs (non-translated regions) from HCV type 1b. Continued culture of the replicon cells in the presence of G418 (neo^R) is dependent on the replication of the HCV RNA. The stably transfected replicon cells that express HCV RNA, which replicates autonomously and to high levels, encoding inter alia luciferase, were used for screening the antiviral compounds.
The replicon cells were plated in 384 well plates in the presence of the test and control compounds which were added in various concentrations. Following an incubation of three days, HCV replication was measured by assaying luciferase activity (using standard luciferase assay substrates and reagents and a Perkin Elmer ViewLux™ ultraHTS microplate imager). […] The inhibitory activity of the compound on luciferase activity was monitored on the Huh-Luc cells, enabling a dose-response curve for each test compound. EC50 values were then calculated, which value represents the amount of the compound required to decrease the level of detected luciferase activity by 50%, or more specifically, the ability of the genetically linked HCV replicon RNA to replicate.
For orientation: In antiviral work, replicon cells carry a viral genome segment that copies itself.

`COc1ccc(-c2ccc(Cl)cc2)c(-c2ccc3cc(-c4c(C5CCCCC5)c5ccc6cc5n4CC(=O)NCCC=CCCNC6=O)ccc3n2)c1`: in data set [1] (from C=CCCNC(=O)Cn1c(-c2ccc3nc(-c4cc(OC)ccc4-c4ccc(Cl)cc4)ccc3c2)c(C2CCCCC2)c2ccc(C(=O)NCCC=C)cc21, DCE, 1.32 mM), the ring closure, yield of all isomers is 30%. The same compound yielded a ring closure, isolated yield (from C=CCCNC(=O)c1cc(C)c2c(C3CCCCC3)c(-c3ccc4nc(-c5cc(OC)ccc5-c5ccc(Cl)cc5)ccc4c3)n(C(=O)NCCC=C)c2c1, rcm bond, 15-membered ring, Hoveyda-Grubbs 1st gen (0.42 eq), DCE, 1.32 mM, 80.0 °C) of 30%. `O=C1Cn2c(-c3ccoc3)c(C3CCCCC3)c3ccc(cc32)C(=O)NCCC=CCCN1` displayed a ring closure, yield of all isomers in data set [1] (from C=CCCNC(=O)Cn1c(-c2ccoc2)c(C2CCCCC2)c2ccc(C(=O)NCCC=C)cc21, 1,2-dichloroethane, 1.585 mM, 15.0 h) of 22%.

Consider `COc1ccc(-c2c(C3CCCCC3)c3ccc4cc3n2CC(=O)NCCCCCN(C)S(=O)(=O)NC4=O)cc1` [Cpd 26, 18-Cyclohexyl-19-(4-methoxy-phenyl)-10-methyl-11,11-dioxo-11λ^6-thia-1,4,10,12-tetraaza-tricyclo[12.5.2.017,20]henicosa-14(21),15,17(20),18-tetraene-3,13-dione], for which the EC50 (commonly the concentration needed to bring the measured effect to its halfway point) in data set [2] amounted to 0.35 µM. This compound also yielded a ring closure, isolated yield (amide bond, 16-membered ring, CDI, CH3CN, 2 steps) of 31%.
